From ChEMBL document CHEMBL1629674, “Surveillance of carbapenem-resistant Pseudomonas aeruginosa isolates from Puerto Rican Medical Center Hospitals: dissemination of KPC and IMP-18 beta-lactamases” (2009)

Experiments:
[1] = test system: Pseudomonas aeruginosa; experiment: Antimicrobial activity against Pseudomonas aeruginosa PS12 with PFGE phasotype 7B obtained from sputum of patient by agar dilution method in presence of beta-lactamase inhibitor Tazobactam; assay type: functional
[2] = test system: Pseudomonas aeruginosa; experiment: Antimicrobial activity against Pseudomonas aeruginosa PS26 with PFGE phenotype 3A expressing beta-lactamase OXA-2 obtained from sputum of ICU patient by agar dilution method in presence of beta-lactamase inhibitor tazobactam; assay type: functional
[3] = test system: Pseudomonas aeruginosa; experiment: Antimicrobial activity against Pseudomonas aeruginosa PS28 with PFGE phenotype 6 expressing beta-lactamase KPC-5 obtained from skin of patient by agar dilution method in presence of beta-lactamase inhibitor tazobactam; assay type: functional
[4] = test system: Pseudomonas aeruginosa; experiment: Antimicrobial activity against Pseudomonas aeruginosa PS20A with PFGE phenotype 11D obtained from skin of patient by agar dilution method in presence of beta-lactamase inhibitor tazobactam; assay type: functional
[5] = test system: Pseudomonas aeruginosa; experiment: Antimicrobial activity against Pseudomonas aeruginosa PS41 with PFGE phenotype 11D obtained from urine of patient by agar dilution method in presence of beta-lactamase inhibitor tazobactam; assay type: functional
[6] = test system: Pseudomonas aeruginosa; experiment: Antimicrobial activity against Pseudomonas aeruginosa PS2 with PFGE phenotype 10B obtained from urine of ICU patient by agar dilution method in presence of beta-lactamase inhibitor tazobactam; assay type: functional
[7] = test system: Pseudomonas aeruginosa; experiment: Antimicrobial activity against Pseudomonas aeruginosa PS19A with PFGE phenotype 11C obtained from urine of patient by agar dilution method in presence of beta-lactamase inhibitor tazobactam; assay type: functional
[8] = test system: Pseudomonas aeruginosa; experiment: Antimicrobial activity against Pseudomonas aeruginosa PS21 with PFGE phenotype 11F obtained from skin of patient by agar dilution method in presence of beta-lactamase inhibitor tazobactam; assay type: functional
[9] = test system: Pseudomonas aeruginosa; experiment: Antimicrobial activity against Pseudomonas aeruginosa PS17B with PFGE phenotype 11D expressing beta-lactamase KPC-2 obtained from blood of ICU patient by agar dilution method in presence of beta-lactamase inhibitor tazobactam; assay type: functional
[10] = test system: Pseudomonas aeruginosa; experiment: Antimicrobial activity against Pseudomonas aeruginosa PS5 with PFGE phenotype 7A expressing beta-lactamase KPC-2 obtained from sputum of ICU patient by agar dilution method in presence of beta-lactamase inhibitor tazobactam; assay type: functional
[11] = test system: Pseudomonas aeruginosa; experiment: Antimicrobial activity against Pseudomonas aeruginosa PS6A with PFGE phenotype 11A obtained from sputum of ICU patient by agar dilution method in presence of beta-lactamase inhibitor tazobactam; assay type: functional
[12] = test system: Pseudomonas aeruginosa; experiment: Antimicrobial activity against Pseudomonas aeruginosa PS14 with PFGE phenotype 10C obtained from sputum of ICU patient by agar dilution method in presence of beta-lactamase inhibitor tazobactam; assay type: functional
[13] = test system: Pseudomonas aeruginosa; experiment: Antimicrobial activity against Pseudomonas aeruginosa PS31 with PFGE phenotype 11B obtained from skin of patient by agar dilution method in presence of beta-lactamase inhibitor tazobactam; assay type: functional
[14] = test system: Pseudomonas aeruginosa; experiment: Antimicrobial activity against Pseudomonas aeruginosa PS13 with PFGE phenotype 11E obtained from sputum of ICU patient by agar dilution method in presence of beta-lactamase inhibitor tazobactam; assay type: functional
[15] = test system: Pseudomonas aeruginosa; experiment: Antimicrobial activity against Pseudomonas aeruginosa PS15A with PFGE phasotype 10A obtained from blood of patient by agar dilution method in presence of beta-lactamase inhibitor Tazobactam; assay type: functional
[16] = test system: Pseudomonas aeruginosa; experiment: Antimicrobial activity against Pseudomonas aeruginosa PS34 with PFGE phenotype 4A obtained from blood of ICU patient by agar dilution method in presence of beta-lactamase inhibitor tazobactam; assay type: functional
[17] = test system: Pseudomonas aeruginosa; experiment: Antimicrobial activity against Pseudomonas aeruginosa PS9 with PFGE phenotype 3B obtained from sputum of patient by agar dilution method in presence of beta-lactamase inhibitor tazobactam; assay type: functional
[18] = test system: Pseudomonas aeruginosa; experiment: Antimicrobial activity against Pseudomonas aeruginosa PS25 with PFGE phenotype 1A obtained from sputum of patient by agar dilution method in presence of beta-lactamase inhibitor tazobactam; assay type: functional
[19] = test system: Pseudomonas aeruginosa; experiment: Antimicrobial activity against Pseudomonas aeruginosa PS10 with PFGE phenotype 1A expressing beta-lactamase KPC-2 obtained from blood of patient by agar dilution method in presence of beta-lactamase inhibitor tazobactam; assay type: functional
[20] = test system: Pseudomonas aeruginosa; experiment: Antimicrobial activity against Pseudomonas aeruginosa PS30 with PFGE phenotype 11D obtained from sputum of patient by agar dilution method in presence of beta-lactamase inhibitor tazobactam; assay type: functional
[21] = test system: Pseudomonas aeruginosa; experiment: Antimicrobial activity against OprD overproducing Pseudomonas aeruginosa PAO1 expressing mexA and oprD by agar dilution method in presence of beta-lactamase inhibitor Tazobactam; assay type: functional
[22] = test system: Pseudomonas aeruginosa; experiment: Antimicrobial activity against Pseudomonas aeruginosa PS23 with PFGE phasotype 4A expressing beta-lactamase KPC-2 obtained from blood of patient by agar dilution method in presence of beta-lactamase inhibitor Tazobactam; assay type: functional
[23] = test system: Pseudomonas aeruginosa; experiment: Antimicrobial activity against Pseudomonas aeruginosa PS3 with PFGE phenotype 12 obtained from sputum of ICU patient by agar dilution method in presence of beta-lactamase inhibitor tazobactam; assay type: functional
[24] = test system: Pseudomonas aeruginosa; experiment: Antimicrobial activity against Pseudomonas aeruginosa PS4 with PFGE phasotype 9B expressing beta-lactamase IMP-18 obtained from sputum of patient by agar dilution method in presence of beta-lactamase inhibitor Tazobactam; assay type: functional
[25] = test system: Pseudomonas aeruginosa; experiment: Antimicrobial activity against Pseudomonas aeruginosa PS29 with PFGE phenotype 11D obtained from sputum of patient by agar dilution method in presence of beta-lactamase inhibitor tazobactam; assay type: functional
[26] = test system: Pseudomonas aeruginosa; experiment: Antimicrobial activity against Pseudomonas aeruginosa PS35 with PFGE phenotype 11A obtained from urine of patient by agar dilution method in presence of beta-lactamase inhibitor tazobactam; assay type: functional
[27] = test system: Pseudomonas aeruginosa; experiment: Antimicrobial activity against Pseudomonas aeruginosa PS43 with PFGE phasotype 2 expressing beta-lactamase KPC-2, OXA-2 obtained from skin of ICU patient by agar dilution method in presence of beta-lactamase inhibitor Tazobactam; assay type: functional
[28] = test system: Pseudomonas aeruginosa; experiment: Antimicrobial activity against Pseudomonas aeruginosa PS11A with PFGE phasotype 7A obtained from sputum of ICU patient by agar dilution method in presence of beta-lactamase inhibitor Tazobactam; assay type: functional
[29] = test system: Pseudomonas aeruginosa; experiment: Antimicrobial activity against Pseudomonas aeruginosa PS39 with PFGE phenotype 8 expressing beta-lactamase IMP-18 obtained from urine of patient by agar dilution method in presence of beta-lactamase inhibitor tazobactam; assay type: functional
[30] = test system: Pseudomonas aeruginosa; experiment: Antimicrobial activity against Pseudomonas aeruginosa PS36 with PFGE phenotype 11B obtained from urine of patient by agar dilution method in presence of beta-lactamase inhibitor tazobactam; assay type: functional
[31] = test system: Pseudomonas aeruginosa; experiment: Antimicrobial activity against Pseudomonas aeruginosa PS44 with PFGE phenotype 13 expressing beta-lactamase IMP-18 obtained from blood of patient by agar dilution method in presence of beta-lactamase inhibitor tazobactam; assay type: functional
[32] = test system: Pseudomonas aeruginosa; experiment: Antimicrobial activity against Pseudomonas aeruginosa PS7A with PFGE phenotype 11D obtained from urine of ICU patient by agar dilution method in presence of beta-lactamase inhibitor tazobactam; assay type: functional
[33] = test system: Pseudomonas aeruginosa; experiment: Antimicrobial activity against Pseudomonas aeruginosa PS33 with PFGE phasotype 9A obtained from blood of patient by agar dilution method in presence of beta-lactamase inhibitor Tazobactam; assay type: functional
[34] = test system: Pseudomonas aeruginosa; experiment: Antimicrobial activity against Pseudomonas aeruginosa PS18A with PFGE phenotype 11D obtained from CSF of ICU patient by agar dilution method in presence of beta-lactamase inhibitor tazobactam; assay type: functional
[35] = test system: Pseudomonas aeruginosa; experiment: Antimicrobial activity against Pseudomonas aeruginosa PS22 with PFGE phenotype 3A obtained from urine of patient by agar dilution method in presence of beta-lactamase inhibitor tazobactam; assay type: functional
[36] = test system: Pseudomonas aeruginosa; experiment: Antimicrobial activity against Pseudomonas aeruginosa PS37 with PFGE phasotype 11D obtained from sputum of patient by agar dilution method in presence of beta-lactamase inhibitor Tazobactam; assay type: functional
[37] = test system: Pseudomonas aeruginosa; experiment: Antimicrobial activity against Pseudomonas aeruginosa PS40 with PFGE phenotype 5 expressing beta-lactamase KPC-2, OXA-2 obtained from urine of patient by agar dilution method in presence of beta-lactamase inhibitor tazobactam; assay type: functional
[38] = test system: Pseudomonas aeruginosa; experiment: Antimicrobial activity against Pseudomonas aeruginosa PS1 with PFGE phenotype 9C negative for blaIMP, blaVIM and blaKPC obtained from sputum of patient by agar dilution method in presence of beta-lactamase inhibitor tazobactam

Measured: MIC

CCN1CCN(C(=O)N[C@@H](C(=O)N[C@@H]2C(=O)N3[C@@H]2SC(C)(C)[C@@H]3C(=O)O)c2ccccc2)C(=O)C1=O [PIPERACILLIN]
256 µg/mL: [27] | [35]
4 µg/mL: [6] | [12] | [21]
32 µg/mL: [31] | [33]
128 µg/mL: [2] | [3] | [29] | [37]
64 µg/mL: [17] | [24]
8 µg/mL: [15] | [23] | [38]
> 256 µg/mL: all other assays above
